Molecules are shown by their SMILES. In brackets after ≈: the same amount, converted by molar mass.

The source of these data is ChEMBL document CHEMBL1127929, “The synthesis and serine -lactamase inhibitory activity of some phosphonamidate analogues of dipeptides” (1994).

In experiment [1] the target is T1, SHV-5 extended spectrum beta-lactamase (Escherichia coli) (UniProt Q6REX6).
T1 sequence (whole entry): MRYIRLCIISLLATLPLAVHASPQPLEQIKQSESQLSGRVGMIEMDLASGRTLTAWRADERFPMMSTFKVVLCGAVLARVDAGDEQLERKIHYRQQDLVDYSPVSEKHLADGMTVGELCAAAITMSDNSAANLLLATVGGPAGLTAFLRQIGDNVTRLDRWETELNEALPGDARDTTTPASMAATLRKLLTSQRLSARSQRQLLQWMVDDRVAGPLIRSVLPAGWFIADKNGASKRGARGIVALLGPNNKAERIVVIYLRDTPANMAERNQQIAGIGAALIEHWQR
The experiment can be described thus: Compound was tested for the inhibitory activity against Escherichia coli SHV-5 serine beta-lactamase.

The target in experiment [2] is Beta-lactamase (Enterobacter cloacae) (UniProt P05364). The experiment can be described thus: Compound was tested for the inhibitory activity against Enterobacter cloacae P99 serine beta-lactamase.
For experiment [3], the target named is Beta-lactamase (Staphylococcus aureus) (UniProt P00807). As to the kind of experiment: Inhibitory activity against Staphylococcus aureus penicillinase.
Experiment [4] concerns the target Beta-lactamase OXA-1 (Escherichia coli) (UniProt P13661). The experiment can be described thus: Compound was tested for the inhibitory activity against Escherichia coli OXA-1 serine beta-lactamase.
Experiment [5] addresses Beta-lactamase TEM (Escherichia coli) (UniProt P62593). As to the kind of experiment: Inhibitory activity against Escherichia coli TEM-1 serine beta-lactamase.
Experiment [6] has as its target T2, Beta-lactamase PSE-4 (Pseudomonas aeruginosa) (UniProt P16897).
T2 sequence (whole entry): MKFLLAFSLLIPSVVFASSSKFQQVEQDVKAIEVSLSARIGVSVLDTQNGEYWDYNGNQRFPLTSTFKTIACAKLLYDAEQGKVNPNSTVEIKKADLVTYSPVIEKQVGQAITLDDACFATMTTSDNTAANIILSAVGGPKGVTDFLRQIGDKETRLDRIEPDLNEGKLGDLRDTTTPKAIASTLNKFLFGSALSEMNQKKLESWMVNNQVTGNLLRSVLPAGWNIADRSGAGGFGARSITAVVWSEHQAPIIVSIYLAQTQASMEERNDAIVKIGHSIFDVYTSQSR
As to the kind of experiment: Compound was tested for the inhibitory activity against Pseudomonas aeruginosa PSE-4 serine beta-lactamase.

The subject of another experiment is Proteus mirabilis. The experiment can be described thus: Compound was tested for the inhibitory activity against Proteus mirabilis carbenicillinase.
Experiment [7] deals with Beta-lactamase (Enterobacter cloacae) (UniProt P05364).
Description: Minimum inhibitory concentration against Enterobacter cloacae N-1 organism
For experiment [8] the target is unchanged. The experiment can be described thus: Minimum inhibitory concentration of 10 ug/ml compound in combination with amoxycillin against Enterobacter cloacae N-1 organism,. The class given is functional.
The subject of experiment [9] is Staphylococcus aureus. The experiment can be described thus: Minimum inhibitory concentration of 10 ug/ml compound in combination with amoxycillin against Staphylococcus aureus MB9 organism. The class given is functional.
Experiment [10] addresses Beta-lactamase (Enterobacter cloacae) (UniProt P05364). This is another data set of the same source.
Description: Minimum inhibitory concentration of 4 ug/ml compound in combination with amoxycillin against Enterobacter cloacae N-1 organism
Experiment [11] addresses Beta-lactamase TEM (Escherichia coli) (UniProt P62593). As to the kind of experiment: Minimum inhibitory concentration of 4 ug/ml compound in combination with amoxycillin against Escherichia coli E96P organism. The class given is functional.
In experiment [12] the target is Beta-lactamase (Enterobacter cloacae) (UniProt P05364). The experiment can be described thus: Minimum inhibitory concentration of 10 ug/ml compound in combination with amoxycillin against Enterobacter cloacae N-1 organism. The class given is functional.
The test system of experiment [13] is Staphylococcus aureus. The experiment can be described thus: Minimum inhibitory concentration against Staphylococcus aureus MB9 organism. The class given is functional.
For experiment [14], the system named is Staphylococcus aureus. The experiment can be described thus: Minimum inhibitory concentration of 4 ug/ml compound in combination with amoxycillin against Staphylococcus aureus MB9 organism. The class given is functional.
Experiment [15] has as its target Beta-lactamase (Enterobacter cloacae) (UniProt P05364). This is another data set of the same source.
Description: Antibacterial activity against Enterobacter cloacae N-1 organism, activity expressed as MIC(minimum inhibitory concentration)
Experiment [16] has as its system Staphylococcus aureus. The experiment can be described thus: Antibacterial activity against Staphylococcus aureus MB9 organism, activity expressed as MIC(minimum inhibitory concentration). It counts as functional.
Experiment [17] addresses Beta-lactamase TEM (Escherichia coli) (UniProt P62593).
Description: Antibacterial activity against Escherichia coli E96P organism, activity expressed as MIC(minimum inhibitory concentration)

Chain of Beta-lactamase (Staphylococcus aureus) (P00807 whole entry): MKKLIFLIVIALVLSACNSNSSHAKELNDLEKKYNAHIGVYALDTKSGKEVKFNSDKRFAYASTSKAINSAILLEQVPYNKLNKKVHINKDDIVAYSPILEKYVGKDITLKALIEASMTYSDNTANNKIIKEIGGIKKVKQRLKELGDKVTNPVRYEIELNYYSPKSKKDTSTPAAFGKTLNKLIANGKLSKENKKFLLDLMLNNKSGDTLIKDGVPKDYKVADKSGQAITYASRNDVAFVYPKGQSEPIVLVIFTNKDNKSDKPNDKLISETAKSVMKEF
Chain of Beta-lactamase OXA-1 (Escherichia coli) (P13661 whole entry): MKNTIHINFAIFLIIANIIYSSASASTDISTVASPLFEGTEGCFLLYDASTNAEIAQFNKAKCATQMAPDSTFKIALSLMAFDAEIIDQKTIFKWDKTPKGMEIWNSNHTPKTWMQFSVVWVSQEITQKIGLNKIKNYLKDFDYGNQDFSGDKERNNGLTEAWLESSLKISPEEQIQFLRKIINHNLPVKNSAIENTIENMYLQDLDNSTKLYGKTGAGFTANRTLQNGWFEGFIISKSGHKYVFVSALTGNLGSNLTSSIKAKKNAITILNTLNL
Chain of Beta-lactamase (Enterobacter cloacae) (P05364 21-381 limits assumed): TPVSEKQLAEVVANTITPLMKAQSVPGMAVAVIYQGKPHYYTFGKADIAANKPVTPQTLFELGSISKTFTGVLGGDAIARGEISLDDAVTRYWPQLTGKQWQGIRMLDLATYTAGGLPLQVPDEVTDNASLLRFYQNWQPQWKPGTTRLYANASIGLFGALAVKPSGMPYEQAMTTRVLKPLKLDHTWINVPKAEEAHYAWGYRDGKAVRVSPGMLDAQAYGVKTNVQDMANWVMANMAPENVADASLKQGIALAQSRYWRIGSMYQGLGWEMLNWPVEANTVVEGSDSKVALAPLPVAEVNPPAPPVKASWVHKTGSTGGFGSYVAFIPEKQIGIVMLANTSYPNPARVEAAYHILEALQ
Chain of Beta-lactamase TEM (Escherichia coli) (P62593 whole entry): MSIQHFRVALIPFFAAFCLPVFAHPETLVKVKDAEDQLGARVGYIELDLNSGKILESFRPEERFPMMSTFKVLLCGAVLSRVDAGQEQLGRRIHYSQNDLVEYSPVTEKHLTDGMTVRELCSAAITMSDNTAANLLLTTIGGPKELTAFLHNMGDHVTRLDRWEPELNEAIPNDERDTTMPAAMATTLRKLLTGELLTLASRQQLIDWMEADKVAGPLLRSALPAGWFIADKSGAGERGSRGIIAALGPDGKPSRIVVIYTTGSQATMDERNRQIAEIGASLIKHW

Consider `O=C(O)CC(NP(=O)(O)CNC(=O)OCc1ccccc1)c1ccccc1` (stereo unspecified), for which the ID50 was 63 µM in [1]; 0.87 µM in [2]; more than 35 µM in experiment [3]; 46 µM in [4]; more than 50 µM in experiment [5]; 83 µM in experiment [6]. Moreover, the ID50 in the experiment on Proteus mirabilis is more than 100 µM.

Consider `O=C(NCP(=O)(O)N[C@@H](C(=O)O)c1ccccc1)OCc1ccccc1`, for which the ID50 in [1] was more than 100 µM; in experiment [2], 4.16 µM; in [3], more than 100 µM; in experiment [4], more than 100 µM; in [5] it was more than 100 µM; in [6], more than 100 µM. Further, in the experiment on Proteus mirabilis, the ID50 is more than 100 µM.

Take `COP(=O)(CNC(=O)OCc1ccccc1)N1CSC(C)(C)[C@@H]1C(=O)O` (stereo partly specified): the ID50 in experiment [2], in [3] and in experiment [5] was more than 100 µM each time.

Regarding `COP(=O)(CNC(=O)OCc1ccccc1)N1CCC[C@@H]1C(=O)O` (stereo partly specified), the results for the ID50 in experiment [2], in experiment [3] and in [5] were 67 µM, more than 100 µM and more than 100 µM, respectively.

Compound `CC1(C)S[C@@H]2[C@H](NC(=O)[C@H](N)c3ccc(O)cc3)C(=O)N2[C@H]1C(=O)O` displayed an MIC in [7] of 256 µg/mL (≈ 701 µM).

Take `O=C(NCP(=O)(O)N[C@@H](Cc1ccccc1)C(=O)O)OCc1ccccc1`: the ID50 is more than 100 µM in experiment [1]; 0.75 µM in experiment [2]; more than 33 µM in [3]; 60 µM in [4]; more than 50 µM in experiment [5]; 15 µM in experiment [6]. Besides, in the experiment with Proteus mirabilis, the ID50 was more than 100 µM.

Regarding `CC1(C)S[C@@H]2[C@H](NC(=O)C(N)c3ccc(O)cc3)C(=O)N2[C@H]1C(=O)O.O=C(O)CNP(=O)(O)CNC(=O)OCc1ccccc1` (stereo partly specified), in [8], the MIC was found to be 32 µg/mL.

Consider `O=C(NCP(=O)(O)N[C@H](Cc1ccccc1)C(=O)O)OCc1ccccc1`, for which the ID50 in [1] is more than 100 µM; in experiment [2], 3.8 µM; in [3] it was more than 100 µM; in experiment [4] it was more than 100 µM; in experiment [5], more than 100 µM; in experiment [6], more than 100 µM. In the experiment with Proteus mirabilis, this compound returned an ID50 of more than 100 µM.

On to `CC1(C)S[C@@H]2[C@H](NC(=O)C(N)c3ccc(O)cc3)C(=O)N2[C@H]1C(=O)O.O=C(NCP(=O)([O-])NC(C(=O)[O-])c1ccccc1)OCc1ccccc1.[Li+].[Li+]` (stereo unspecified), for which the MIC with Staphylococcus aureus [9] is 64 µg/mL.

Consider `CC1(C)S[C@@H]2[C@H](NC(=O)[C@H](N)c3ccc(O)cc3)C(=O)N2[C@H]1C(=O)O.O=C(O)[C@H]1/C(=C/CO)O[C@@H]2CC(=O)N21` [listing 1 of 2 here], for which the MIC came to 256 µg/mL in experiment [10] and 16 µg/mL in [11].

`CC1(C)S[C@@H]2[C@H](NC(=O)C(N)c3ccc(O)cc3)C(=O)N2[C@H]1C(=O)O.O=C(O)CC(NP(=O)(O)CNC(=O)OCc1ccccc1)c1ccccc1` (stereo unspecified): the MIC in [12] was 16 µg/mL.

As to `CC1(C)S[C@@H]2[C@H](NC(=O)C(N)c3ccc(O)cc3)C(=O)N2[C@H]1C(=O)O.O=C([O-])CC(NP(=O)([O-])CNC(=O)OCc1ccccc1)c1ccccc1.[Li+].[Li+]` (stereo unspecified), in the experiment with Staphylococcus aureus [9], the MIC stood at 8 µg/mL.

On to `CC1(C)S[C@@H]2[C@H](NC(=O)[C@H](N)c3ccc(O)cc3)C(=O)N2[C@H]1C(=O)O` [AMOXICILLIN], for which the MIC against Staphylococcus aureus [13] worked out at 256 µg/mL (≈ 701 µM).

As for `CC1(C)S[C@@H]2[C@H](NC(=O)C(N)c3ccc(O)cc3)C(=O)N2[C@H]1C(=O)O.O=C(NCP(=O)(O)NC(C(=O)O)c1ccccc1)OCc1ccccc1` (stereo unspecified), the MIC in [12] worked out at 32 µg/mL.

As to `CC1(C)S[C@@H]2[C@H](NC(=O)[C@H](N)c3ccc(O)cc3)C(=O)N2[C@H]1C(=O)O.O=C(O)[C@H]1/C(=C/CO)O[C@@H]2CC(=O)N21` [listing 2 of 2 here], the MIC in the experiment on Staphylococcus aureus [14] is 0.12 µg/mL.

Regarding `O=C(O)CCNP(=O)(O)CNC(=O)OCc1ccccc1`, the ID50 in [1] was 33 µM; in [2] it was 0.87 µM; in experiment [3] it was more than 25 µM; in experiment [4], 14 µM; in experiment [5], more than 50 µM; in experiment [6] it was more than 100 µM. The ID50 in the experiment with Proteus mirabilis is more than 100 µM.

For `CC1(C)S[C@@H]2[C@H](NC(=O)C(N)c3ccc(O)cc3)C(=O)N2[C@H]1C(=O)O.O=C(NCP(=O)([O-])N[C@@H](Cc1ccccc1)C(=O)[O-])OCc1ccccc1.[Li+].[Li+]`, the MIC with Staphylococcus aureus [9] was 64 µg/mL.

In the case of `CC1(C)S[C@@H]2[C@H](NC(=O)C(N)c3ccc(O)cc3)C(=O)N2[C@H]1C(=O)O.O=C(NCP(=O)(O)N[C@H](Cc1ccccc1)C(=O)O)OCc1ccccc1`, in experiment [12], the MIC stood at 128 µg/mL.

As to `CC1(C)S[C@@H]2[C@H](NC(=O)C(N)c3ccc(O)cc3)C(=O)N2[C@H]1C(=O)O.O=C(NCP(=O)([O-])N[C@H](Cc1ccccc1)C(=O)[O-])OCc1ccccc1.[Li+].[Li+]`, the MIC in the experiment on Staphylococcus aureus [9] is 64 µg/mL.

For the compound `COP(=O)(CNC(=O)OCc1ccccc1)N1CCC[C@H]1C(=O)O` (stereo partly specified), the ID50 in experiment [2] is 54 µM; in [3], more than 100 µM; in experiment [5] it was more than 100 µM.

With `O=C(O)[C@H]1/C(=C/CO)O[C@@H]2CC(=O)N21` [CLAVULANIC ACID], the MIC (in [15]; in the experiment on Staphylococcus aureus [16]; in experiment [17]) was 32 µg/mL (≈ 161 µM) in each case. For the same compound, the ID50 in [1] was found to be 0.013 µM; in experiment [2], 310 µM; in experiment [3], 0.38 µM; in experiment [4], 3.4 µM; in experiment [5], 0.315 µM; in [6], 0.235 µM. In addition, in the experiment on Proteus mirabilis, the ID50 came to 0.51 µM.

For the compound `CC1(C)S[C@@H]2[C@H](NC(=O)C(N)c3ccc(O)cc3)C(=O)N2[C@H]1C(=O)O.O=C(O)CCNP(=O)(O)CNC(=O)OCc1ccccc1` (stereo partly specified), in [12], the MIC was 44 µg/mL.

As for `CC1(C)S[C@@H]2[C@H](NC(=O)C(N)c3ccc(O)cc3)C(=O)N2[C@H]1C(=O)O.O=C([O-])CNP(=O)([O-])CNC(=O)OCc1ccccc1.[Li+].[Li+]` (stereo partly specified), in the experiment with Staphylococcus aureus [9], the MIC stood at 64 µg/mL.

Consider `CC1(C)S[C@@H]2[C@H](NC(=O)C(N)c3ccc(O)cc3)C(=O)N2[C@H]1C(=O)O.O=C(NCP(=O)(O)N[C@@H](Cc1ccccc1)C(=O)O)OCc1ccccc1`, for which the MIC in experiment [12] amounted to 128 µg/mL.

Consider `O=C(O)CNP(=O)(O)CNC(=O)OCc1ccccc1`, for which the ID50 in [1] is more than 100 µM; in experiment [2], 2.29 µg/mL; in experiment [3], more than 100 µg/mL; in experiment [4], 30 µM; in experiment [5], more than 100 µg/mL; in [6], more than 100 µM. Moreover, in the experiment on Proteus mirabilis, the ID50 was more than 100 µM.

With `O=C(O)CNCP(=O)(O)CNC(=O)OCc1ccccc1`, the ID50 in experiment [2], in [3] and in [5] was more than 100 µM each time.

For the compound `CC1(C)S[C@@H]2[C@H](NC(=O)C(N)c3ccc(O)cc3)C(=O)N2[C@H]1C(=O)O.O=C([O-])CCNP(=O)([O-])CNC(=O)OCc1ccccc1.[Li+].[Li+]` (stereo partly specified), the MIC with Staphylococcus aureus [9] amounted to 32 µg/mL.
